Experimental data as given in patent US20170349879A1, “METHOD FOR CULTURING NORMAL CELLS AND ODONTOMA CELLS CONTAINED IN ORAL TISSUE” (CHIBA UNIVERSITY, priority 2014, published 2017).

Tests used:
[1] = tested on: salivary gland cells; experiment: Analysis of cytomorphological changes by immunocytological fluorescent staining of the cytoskeleton (F-actin); type: cell-based, human; conditions: salivary gland cells in Rock inhibitor-containing medium vs inhibitor-free medium; FIG. 4
Procedure: In this section, cytomorphological changes caused by the presence or absence of a Rock inhibitor were analyzed by immunocytological fluorescent staining of the cytoskeleton. Analytes were treated by the same experimental procedures as shown in (2.2) above. As an antibody, Acti-stain 670 fluorescent Phallodin (F-actin) (Cytoskeleton) was reacted at room temperature for 1 hour.

[2] = tested on: salivary gland cells; experiment: Karyotype analysis (Q band technique) of primary cultured salivary gland cells; type: cell-based, human; conditions: primary cultured labial gland cells cultured in inhibitor-containing medium; FIG. 5
Procedure: Primary cultured salivary gland cells were cultured in a medium containing a Rock inhibitor and analyzed for the presence or absence of their genetic defect(s) by karyotype analysis. The karyotype analysis test was conducted by Q band technique.

[3] = tested on: telomerase reverse transcriptase (TERT); experiment: Quantitative RT-PCR of TERT (immortalization) in salivary gland cells; type: cell-based, human; conditions: salivary gland cells in Rock inhibitor-containing medium; FIG. 6B
Procedure: Primary cultured salivary gland cells were cultured in a medium containing a Rock inhibitor and analyzed for their proliferation by Western blotting of proliferating cell nuclear antigen (PCNA: Santa Cruz) and for their apoptosis by Western blotting of caspase-3 (CST). For analysis of their immortalization, the expression of telomerase reverse transcriptase (TERT) was analyzed by quantitative RT-PCR assay. Quantitative RT-PCR of TERT was conducted in the same manner as shown in (2.1) above. The primers used are as shown below. The universal probe used was #19.

[4] = tested on: B6C3F1/Crlj mice; experiment: Toxicity in mice administered intraperitoneally with a Rock inhibitor; type: in vivo; conditions: 10 mg/kg/day intraperitoneal, once a day for 14 days
Procedure: 4.3 Histopathological Analysis of Organ Toxicity in Mice Administered Intraperitoneally with a Rock Inhibitor Animal used: B6C3F1/Crlj mice (CLEA Japan, Inc., Japan) n=12 for each group (male: 6, female: 6), n=4 for the control group (male: 2, female: 2) Drug: Y-27632 Dose: 10 mg/kg/day (0.25 mg/day for 25 g body weight) Y-27632 was dissolved in PBS and intraperitoneally administered. The control group was administered with an equal volume of PBS. Administration period: administered once a day for successive 14 days. Half of the mice in each group were monitored for follow-up purposes for 14 days after administration. (i) Groups receiving a Rock inhibitor (RI+): n=12 (male: 6, female: 6) A. Group subjected to blood collection and autopsy at the time of the completion of administration (at 14 days after the initiation of administration). n=6 (male: 3, female: 3) B. Group subjected to blood collection and autopsy at the time of the completion of administration (at 28 days after the initiation of administration). n=6 (male: 3, female: 3) The mice were visually observed for their general condition once a day. The mice were measured daily for their body weight and feed/water intake. Hematological tests were performed on each mouse before administration and after administration (on the 14th day). * In each group, 3 male and 3 female mice were subjected to blood collection and autopsy on the 14th day of administration. […] These mice were subjected to blood examination and autopsy on the 28th day after the initiation of administration. Blood counting: red blood cell count, white blood cell count, platelet count, hematocrit value, red blood cell fraction. Biochemical parameters: TP, ALB, CRE, Na, K, GOT, GPT, T-CHO, Glu On the […], 3 male and 3 female mice from each group were subjected to autopsy. The remaining 3 male and 3 female mice were subjected to autopsy on the 28th day after being monitored for follow-up purposes. […]

[5] = tested on: oral mucosal epithelial cells; experiment: Cell culture of oral mucosal epithelial cells using a Rho kinase inhibitor (cell morphology); type: cell-based, human; conditions: inhibitor-containing medium (10 μM); passage 5 with inhibitor vs passage 0 without; FIG. 12
Procedure: (§1) Odontoma cells, oral mucosal epithelial cells, fibroblasts, and cancer-associated fibroblasts (CAFs) (i) Patient-derived cells for use as a source material were taken in a required amount as described above. (ii) The cells were washed three times with phosphate-buffered physiological saline (PBS) (supplemented with 10 units/ml of penicillin and 100 μg/ml of streptomycin: Sigma-Aldrich). (iii) The cells were cut into small pieces with sterilized iris scissors and a surgical knife (No. 11). (iv) After addition of trypsin (TrypLE Select Enzyme, Gibco, Code No. A12177-01), the cells were shaken at 37° C. for 30 minutes. (v) The cells were mixed with Dulbecco's modified Eagle medium (DMEM: Sigma-Aldrich) (supplemented with 10% fetal bovine serum: Nichirei Bioscience Inc., Japan, 10 units/ml of penicillin and 100 μg/ml of streptomycin), and centrifugation (at 1000 rpm for 5 minutes) was repeated three times. (vi) The cells were mixed with DMEM (supplemented with 10% fetal bovine serum, 10 units/ml of penicillin, 100 μg/ml of streptomycin, 10 μM of the Rock kinase inhibitor and 0.3 μM of L-ascorbic acid 2-phosphate: Sigma-Aldrich) (DMEM+) and then seeded into collagen type I-coated cell culture dishes (IWAKI). (vii) The cells were washed with PBS once every three days to replace the above medium. (viii) The cultured cells were subcultured at 80% confluency. […]

[6] = tested on: fibroblasts; experiment: Cell culture of fibroblasts using a Rho kinase inhibitor (cell morphology); type: cell-based, human; conditions: inhibitor-containing medium (10 μM); passage 7 with inhibitor vs passage 2 without; FIG. 13
Procedure: as §1

CC(N)[C@H]1CC[C@H](C(=O)Nc2ccncc2)CC1 (stereo partly drawn) [Rock inhibitor, (R)-(+)-trans-N-(4-pyridyl)-4-(1-aminoethyl)-cyclohexanecarboxamide]
cytoskeleton (F-actin) morphology [1]: honeycomb-like skeleton
chromosomal/genetic defect(s) in karyotype analysis [2]: No genetic defect was observed
TERT expression [3]: no difference was also observed
hematological tests ([4]; FIG. 7): No abnormal findings were observed
time course of body weight changes ([4]; FIG. 8): No abnormal findings were observed
histopathological examination of organs ([4]; HE staining, FIG. 9): No abnormal findings were observed
cell morphology of oral mucosal epithelial cells on repeated subculture [5]: maintain their cell morphology even when repeatedly subcultured
cell morphology of fibroblasts on repeated subculture [6]: maintain their cell morphology even when repeatedly subcultured
